{"source": "patent US20100311726A1", "about": "“REDUCTION OF BETA-AMYLOID LEVELS BY TREATMENT WITH THE SMALL MOLECULE DIFFERENTIATION-INDUCING FACTOR” (priority 2007, published 2010)", "key": {"[1]": {"test_system": "CHO cells stably expressing human wild type APP^751 (CHO-7W)", "assay": "Cell proliferation assay in APP-expressing CHO cells", "assay_type": "cell-based, Chinese Hamster", "source_text": "For proliferation assays, 1×10^4 cells were deposited into 24-well plates and treated with vehicle (ethanol or DMSO) or with various amounts of DIF-1 or DIF-3 for a period of 4 days. Cells were harvested after each day by trypsin/EDTA treatment, stained with an equal volume of 0.05% Trypan blue and enumerated in triplicate twice using a haemocytometer. Dead cells are stained blue, but live cells with intact cell membranes are not coloured. Data represents the mean cell number±the standard deviation for at least 3 separate experiments.\nThe levels of secreted Aβ from CHO-7W cells stably overexpressing APP^751 and CHO-CAB cells that overexpress APP^751 and human BACE1 was quantified by ELISA and viewed by western blot using the monoclonal anti-APP antibody (6E10) that recognizes residues 1-17 of Aβ. […] Since DIF-1 exerts a cytostatic effect, the cell number was counted for all treatments upon removal of the conditioned media and used to normalize the levels of Aβ. […] The concentration of Aβ40 and Aβ42 was subsequently detected in triplicate using the β-Amyloid 1-40 or 1-42 Colorimetric ELISA kit (Biosource International, Inc.) according to the manufacturer's instructions.\nCells seeded on a 6-well plate were incubated with various concentrations of DIF-1. Cells were harvested by the trypsin/EDTA treatment at the times indicated and counted with a haemocytometer. […]"}, "[2]": {"settings": "neutral pH; cited from earlier work"}, "human APLP2": {"test_system": "human APLP2", "assay": "APLP2 CTF levels in CHO cells expressing APLP2", "assay_type": "cell-based", "settings": "co-treatment of DIF-1 and DAPT", "source_text": "To ascertain if DIF-1 indiscriminately perturbs the metabolism of type I transmembrane proteins we investigated the processing of other γ-secretase substrates."}, "Dictyostelium discoideum": {"test_system": "Dictyostelium discoideum", "settings": "Masento et al., 1988; cited from earlier work"}, "secreted APP and Aβ": {"test_system": "secreted APP and Aβ", "assay": "Secreted APP and total Aβ in conditioned media by western blot", "assay_type": "cell-based, human", "settings": "CHO-7W, 30 μM, antibody 6E10", "experimental": "The levels of secreted Aβ from CHO-7W cells stably overexpressing APP^751 and CHO-CAB cells that overexpress APP^751 and human BACE1 was quantified by ELISA and viewed by western blot using the monoclonal anti-APP antibody (6E10) that recognizes residues 1-17 of Aβ. Cells (5×10^5) were deposited into 6-well tissue culture dishes in triplicate and allowed to settle and grow for 24 hours. At this time, the media was aspirated and the cells were washed 2× in warm PBS. Fresh media (2 mL) and media supplemented with vehicle or DIF-1 was added to each well. […] Since DIF-1 exerts a cytostatic effect, the cell number was counted for all treatments upon removal of the conditioned media and used to normalize the levels of Aβ. […] The concentration of Aβ40 and Aβ42 was subsequently detected in triplicate using the β-Amyloid 1-40 or 1-42 Colorimetric ELISA kit (Biosource International, Inc.) according to the manufacturer's instructions.\nWe then looked at what effect this had on the levels of secreted soluble APP and Aβ production. […] The conditioned media was analyzed using anti-APP antibody 6E10 in order to detect total βP levels and sαAPP levels since it recognizes the amino acids 1-17 of Aβ and thus cannot detect sβAPP. […] The blots were analyzed using a phosphorimager."}, "CHO-CAB cells": {"test_system": "CHO-CAB cells", "assay": "Confocal fluorescence microscopy of CHO-CAB cells", "assay_type": "cell-based, Chinese Hamster", "settings": "30 μM overnight", "experimental": "CHO-CAB cells were grown on multi-well chamber slides and treated overnight with 30 μM DIF-1. The cells were fixed with 4% paraformaldehyde/PBS, permeabilized with 0.1% Triton X-100/PBS for 10 min and blocked with 5% goat serum/PBS. APP (rabbit C-terminal 8717), PDI (ER marker), GM130 (golgi marker), and ubiquitin were detected using their corresponding antibodies and Alexa Fluor-conjugated secondary antibodies. Nuclei were stained with Hoechst 33342 (Molecular Probes/Invitrogen). Confocal fluorescence images were obtained using an Olympus DSU/IX70 spinning disc confocal microscope and processed using IPLab software (Scanalytics/BD Biosciences).\nNext, the effect of DIF-1 on APP trafficking and subcellular distribution was assessed. Cells were fixed with 4% paraformaldehyde/PBS, permeabilized with 0.1% Triton X-100/PBS and blocked with 5% goat serum/PBS. Confocal microscopy of CHO-CAB cells stained with APP antibodies together with the ER marker PDI or golgi marker GM130 confirmed that APP primarily co-localized with GM130 and PDI (FIG. 14A). […] ER structure upon DIF-1 treatment became highly vacuolated but to a varying degree within populations of cells."}, "cyclin D1": {"test_system": "cyclin D1", "assay": "Cyclin D1 level by western blot", "quoted_text": "Following treatment of each cell line with or without DIF-1 (1-30 μM) and/or other inhibitors, cells were lysed in cold RIPA buffer (20 mM Tris-HCl (pH 7.4) buffer containing 150 mM NaCl, 2 mM EDTA, 1% Nonidet® P-40 (NP-40), 50 mM NaF, 1 mM Na3VO4, 1 mM Na2MoO4, 10 mg/ml aprotinin, and 10 mg/ml leupeptin), supplemented with protease inhibitor tablets from Roche (Switzerland). Protein amounts were quantified in triplicate using the BCA assay from Pierce. Equal amounts of protein extracts were fractionated by sodium dodecyl sulfate polyacrylamide gel electrophoresis (SDS-PAGE) and transferred to polyvinylidene difluoride membranes. The membranes were blocked for 1 hour with 5% fat-free powdered milk or 5% BSA, incubated overnight at 4° C. with primary antibodies (1:1000 or 1:5000), washed with TTBS and then incubated at room temperature with appropriate peroxidase-conjugated secondary antibodies (1:5000). Blots were repeatedly washed with TTBS and target proteins were detected using an enhanced chemiluminescence (ECL) system (Amersham Pharmacia Biotech, New Jersey, USA) and XOMAT™ Kodak® film.\nDensitometry analysis of western blot data was performed on a PC computer using QuantityOne® software obtained from Bio-Rad® Laboratories, Inc. (California, USA). Loading variations between western blot lanes were normalized according to the GAPDH signal prior to any experimental quantification. Each western blot presented in the figures is representative of at least five independent experiments to ensure reproducibility of the results unless noted otherwise.\nCHO-CAB cells were treated with lithium chloride (10mM). […] To ensure that the results observed were due to proteasome inhibition, we assessed the effects of lactacystin and ALLN on cyclin D1 levels. […] The data represents that of three separate experiments."}, "APP ubiquitin-conjugates": {"test_system": "APP ubiquitin-conjugates", "assay": "APP ubiquitin-conjugates by immunoprecipitation and western blot", "settings": "CHO-CAB", "quoted_text": "For immunoprecipitations, 1 mg of total protein was diluted with extraction buffer and precleared with protein G-conjugated agarose beads (Pierce). The precleared samples were incubated overnight with anti-APP antibodies or nonimmune IgG (Jackson Laboratories). Immunocomplexes were captured with Protein G agarose beads, washed five times with extraction buffer and heated for 5 min at 95° C. in SDS gel-loading buffer.\nCHO-CAB cell protein extracts (1 mg) were immunoprecipitated using APP antibodies. The immunoprecipitated complexes were analyzed by western blotting using anti-ubiquitin antibodies. […] Molecular Weight markers (kDa) are shown on the left. GAPDH levels are shown below each blot. The data represents that of three separate experiments.\nTo determine whether the proteasome-mediated degradation of APP is accompanied by increased levels of poly-ubiquitinated APP, we investigated the ubiquitination status of APP in extracts of CHO-CAB cells treated in the absence or presence of DIF-1 (30 μM), lactacystin (10 μM), ALLN (10 μM), DIF-1+lactacystin and DIF-1+ALLN."}}}
{"smiles": "CCCCCC(=O)c1c(O)c(Cl)c(OC)c(Cl)c1O", "note": "[DIF-1, 1-[3,5-dichloro-2,6-dihydroxy-4-methoxyphenyl]-1-hexanone]", "values": [{"measurement": "total cell number of vehicle treated cells higher than DIF-1 treated cells", "setting": "[1]; 25 μM, after 20 hours, CHO-7W and CHO-CAB", "value": "~10", "unit": "%"}, {"measurement": "antiproliferative effect in CHO-7W compared to naïve cells (value in brackets, quantity not named)", "setting": "[1]; CHO-7W", "value": "30.6%±1.3"}, {"measurement": "solubility", "setting": "[2]", "value": "soluble in both water and hexane"}, {"measurement": "APLP2 CTF levels", "setting": "human APLP2", "value": "decrease in APLP2 CTF levels"}, {"measurement": "absolute specific activity in stalk-cell differentiation", "setting": "Dictyostelium discoideum", "value": "sub-nanomolar range"}, {"measurement": "level of total Aβ in conditioned media by western blot", "setting": "secreted APP and Aβ", "value": "reduced the level of total Aβ"}, {"measurement": "level of total secreted APP in conditioned media", "setting": "secreted APP and Aβ", "value": "reduced the level of total secreted APP"}, {"measurement": "ER structure (PDI marker)", "setting": "CHO-CAB cells", "value": "disruption in the structure of the ER"}, {"measurement": "subcellular distribution of APP", "setting": "CHO-CAB cells", "value": "enriched around the nuclear periphery"}, {"measurement": "reduction of cyclin D1 level", "setting": "cyclin D1; 30 μM, 18-20 hours, CHO-CAB cells and mouse embryonic fibroblasts", "value": "~82.56±0.74", "unit": "%"}, {"measurement": "effect on cyclin D1 level", "setting": "cyclin D1; CHO-7W, 30 μM DIF-1 or 250 nM DAPT", "value": "markedly decreased"}, {"measurement": "effect on cyclin D1 accumulation, co-treatment with lactacystin or ALLN", "setting": "cyclin D1; CHO-CAB", "value": "inhibited the accumulation of cyclin D1"}, {"measurement": "APP ubiquitin conjugates, treatment with both lactacystin and DIF-1", "setting": "APP ubiquitin-conjugates", "value": "only slightly reduced"}, {"measurement": "APP ubiquitin-conjugates, co-treatment with ALLN", "setting": "APP ubiquitin-conjugates", "value": "prevented the accumulation APP ubiqutin-conjugates"}, {"measurement": "level of APP ubiquitin-conjugates (single agent)", "setting": "APP ubiquitin-conjugates; DIF-1 30 μM, lactacystin 10 μM, ALLN 10 μM", "value": "decreased levels of APP ubiquitin-conjugates"}]}
